The assay deals with PARP7 (Homo sapiens (Human), UniProt Q7Z3E1). Put plainly: Enzymatic assay for inhibition of PARP7: TR-FRET displacement of biotinylated Probe A from the TIPARP active site. Format: binding. As to conditions: Table A-1. In outline: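 TR-FRET, ex 320 nm / em 615 and 665 nm. Signal ratio reflects complex formation.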

The structures appear in SMILES notation.

Usually IC50 stands for the concentration that inhibits the measured activity by half.

PARP7, sequence (Q7Z3E1 whole entry): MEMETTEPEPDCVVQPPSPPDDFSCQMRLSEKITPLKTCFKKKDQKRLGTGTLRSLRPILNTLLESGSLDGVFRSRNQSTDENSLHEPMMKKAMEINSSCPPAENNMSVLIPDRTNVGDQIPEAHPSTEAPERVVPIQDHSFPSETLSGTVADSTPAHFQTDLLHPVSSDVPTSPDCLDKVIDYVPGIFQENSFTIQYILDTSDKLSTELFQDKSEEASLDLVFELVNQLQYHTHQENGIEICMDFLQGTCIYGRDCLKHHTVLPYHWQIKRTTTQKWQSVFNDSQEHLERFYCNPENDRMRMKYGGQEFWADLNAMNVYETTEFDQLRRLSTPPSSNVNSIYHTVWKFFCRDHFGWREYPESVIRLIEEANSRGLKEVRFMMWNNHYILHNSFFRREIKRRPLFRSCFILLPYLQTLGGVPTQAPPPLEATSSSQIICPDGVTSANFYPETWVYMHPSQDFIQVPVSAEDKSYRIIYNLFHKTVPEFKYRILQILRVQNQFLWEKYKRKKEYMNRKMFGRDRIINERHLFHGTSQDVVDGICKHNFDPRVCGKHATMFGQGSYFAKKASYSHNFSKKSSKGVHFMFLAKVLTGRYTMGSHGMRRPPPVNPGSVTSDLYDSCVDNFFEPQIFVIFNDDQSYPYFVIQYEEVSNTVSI

As for `N#Cc1ccc(N2CCN(C(=O)C[C@H]3CC[C@H](CNc4cn[nH]c(=O)c4C(F)(F)F)O3)CC2)nc1` [Example 581 Isomer C, 6-(4-[2-[(2R,5R)-5-([[6-oxo-5-(trifluoromethyl)-1,6-dihydropyridazin-4-yl]amino]methyl)oxolan-2-yl]acetyl]piperazin-1-yl)pyridine-3-carbonitrile], the IC50 was under 100 nM.
In turn, `N#Cc1ccc(N2CCN(C(=O)C[C@@H]3CC[C@H](CNc4cn[nH]c(=O)c4C(F)(F)F)O3)CC2)nc1` [Example 581 Isomer D, 6-(4-[2-[(2S,5R)-5-([[6-oxo-5-(trifluoromethyl)-1,6-dihydropyridazin-4-yl]amino]methyl)oxolan-2-yl]acetyl]piperazin-1-yl)pyridine-3-carbonitrile] came in with an IC50 of under 100 nM.
`N#Cc1ccc(N2CCN(C(=O)C[C@H]3CC[C@@H](COc4cn[nH]c(=O)c4Cl)O3)CC2)nc1` [Example 582 Isomer C, 6-(4-[2-[(2R,5S)-5-[[(5-Chloro-6-oxo-1,6-dihydropyridazin-4-yl)oxy]methyl]oxolan-2-yl]acetyl]piperazin-1-yl)pyridine-3-carbonitrile] gave an IC50 of at least 1000 nM.
On to `N#Cc1ccc(N2CCN(C(=O)C[C@@H]3CC[C@H](COc4cn[nH]c(=O)c4Cl)O3)CC2)nc1` [Example 582 Isomer D, 6-(4-[2-[(2S,5R)-5-[[(5-Chloro-6-oxo-1,6-dihydropyridazin-4-yl)oxy]methyl]oxolan-2-yl]acetyl]piperazin-1-yl)pyridine-3-carbonitrile], for which the IC50 was at least 1000 nM.
For the molecule `C[C@@H](COCCC(=O)N1CCN(c2ccc(C(F)(F)F)cn2)CC1)Oc1cn[nH]c(=O)c1C(F)(F)F` [Example 584, 5-[[(2S)-1-(3-oxo-3-[4-[5-(trifluoromethyl)pyridin-2-yl]piperazin-1-yl]propoxy)propan-2-yl]oxy]-4-(trifluoromethyl)-2,3-dihydropyridazin-3-one], the half-inhibitory concentration (IC50) was under 100 nM.
`CC[C@@H](COCCC(=O)N1CCN(c2ncc(C(F)(F)F)cn2)CC1)Nc1cn[nH]c(=O)c1C(F)(F)F` [Example 585, 5-[[(2S)-1-(3-Oxo-3-[4-[5-(trifluoromethyl)pyrimidin-2-yl]piperazin-1-yl]propoxy)butan-2-yl]amino]-4-(trifluoromethyl)-2,3-dihydropyridazin-3-one] had an IC50 of under 100 nM.
Turning to `CC[C@@H](COCCC(=O)N1CCN(c2ccc(Cl)cn2)CC1)Nc1cn[nH]c(=O)c1C(F)(F)F` [Example 586, 5-[[(2S)-1-[3-[4-(5-Chloropyridin-2-yl)piperazin-1-yl]-3-oxopropoxy]butan-2-yl]amino]-4-(trifluoromethyl)-2,3-dihydropyridazin-3-one], the concentration for half-maximal inhibition (IC50) was under 100 nM.
In the case of `CC[C@@H](COCCC(=O)N1CCN(c2ccc(C(F)(F)F)cn2)CC1)Nc1cn[nH]c(=O)c1C(F)(F)F` [Example 587, 5-[[(2S)-1-(3-Oxo-3-[4-[5-(trifluoromethyl)pyridin-2-yl]piperazin-1-yl]propoxy)butan-2-yl]amino]-4-(trifluoromethyl)-2,3-dihydropyridazin-3-one], the IC50 is under 100 nM.
`CC[C@@H](COCCC(=O)N1CCN(c2ncc(Cl)cn2)CC1)Nc1cn[nH]c(=O)c1C(F)(F)F` [Example 588, 5-[[(2S)-1-[3-[4-(5-Chloropyrimidin-2-yl)piperazin-1-yl]-3-oxopropoxy]butan-2-yl]amino]-4-(trifluoromethyl)-2,3-dihydropyridazin-3-one] returned a concentration for half-maximal inhibition (IC50) of under 100 nM.
In the case of `CC[C@@H](COCCC(=O)N1CCN(c2ccc(C#N)cn2)CC1)Oc1cn[nH]c(=O)c1C(F)(F)F` [Example 589, 6-(4-[3-[(2S)-2-[[6-Oxo-5-(trifluoromethyl)-1,6-dihydropyridazin-4-yl]oxy]butoxy]propanoyl]piperazin-1-yl)pyridine-3-carbonitrile], the IC50 is under 100 nM.
In turn, `N#Cc1cnc(N2CCN(C(=O)CCOCCOc3cn[nH]c(=O)c3C(F)(F)F)CC2)nc1` [Example 590, 2-(4-(3-(2-(6-Oxo-5-(trifluoromethyl)-1,6-dihydropyridazin-4-yloxy)ethoxy)propanoyl)piperazin-1-yl)pyrimidine-5-carbonitrile] returned an IC50 of under 100 nM.
Regarding `CC[C@@H](COc1cn[nH]c(=O)c1C(F)(F)F)OCCC(=O)N1CCN(c2ncc(Cl)cn2)CC1` [Example 591 Isomer B, 5-[(2S)-2-[3-[4-(5-Chloropyrimidin-2-yl)piperazin-1-yl]-3-oxopropoxy]butoxy]-4-(trifluoromethyl)-2,3-dihydropyridazin-3-one], the half-maximal inhibitory concentration (IC50) was under 100 nM.
Molecule `CC[C@@H](COCCC(=O)N1CCN(c2ncc(C#N)cn2)CC1)Oc1cn[nH]c(=O)c1C(F)(F)F` [Example 592, 2-(4-[3-[(2S)-2-[[6-oxo-5-(trifluoromethyl)-1,6-dihydropyridazin-4-yl]oxy]butoxy]propanoyl]piperazin-1-yl)pyrimidine-5-carbonitrile] gave a half-maximal inhibitory concentration (IC50) of under 100 nM.
Regarding `COC[C@@H](COCCC(=O)N1CCN(c2ccc(Cl)cn2)CC1)Nc1cn[nH]c(=O)c1C(F)(F)F` [Example 593, 5-[[(2S)-1-[3-[4-(5-Chloropyridin-2-yl)piperazin-1-yl]-3-oxopropoxy]-3-methoxypropan-2-yl]amino]-4-(trifluoromethyl)-2,3-dihydropyridazin-3-one], the IC50 is under 100 nM.
The molecule `COC[C@@H](COCCC(=O)N1CCN(c2ccc(C(F)(F)F)cn2)CC1)Nc1cn[nH]c(=O)c1C(F)(F)F` [Example 594, 5-[[(2S)-1-Methoxy-3-(3-oxo-3-[4-[5-(trifluoromethyl)pyridin-2-yl]piperazin-1-yl]propoxy)propan-2-yl]amino]-4-(trifluoromethyl)-2,3-dihydropyridazin-3-one] gave an IC50 of under 100 nM.
`CC(C)[C@@H](COCCC(=O)N1CCN(c2ccc(C#N)cn2)CC1)Nc1cn[nH]c(=O)c1C(F)(F)F` [Example 595, 6-(4-[3-[(2S)-3-Methyl-2-[[6-oxo-5-(trifluoromethyl)-1,6-dihydropyridazin-4-yl]amino]butoxy]propanoyl]piperazin-1-yl)pyridine-3-carbonitrile]: the IC50 is under 100 nM.
In turn, `CO[C@H](C)[C@@H](COCCC(=O)N1CCN(c2ccc(C#N)cn2)CC1)Nc1cn[nH]c(=O)c1C(F)(F)F` [Example 596, 6-(4-[3-[(2R,3R)-3-Methoxy-2-[[6-oxo-5-(trifluoromethyl)-1,6-dihydropyridazin-4-yl]amino]butoxy]propanoyl]piperazin-1-yl)pyridine-3-carbonitrile] gave an IC50 of under 100 nM.
`C[C@@H](COCCC(=O)N1CCN(c2ccc(C#N)cn2)CC1)Nc1cn[nH]c(=O)c1Cl` [Example 597, 6-(4-[3-[(2S)-2-[(5-Chloro-6-oxo-1,6-dihydropyridazin-4-yl)amino]propoxy]propanoyl]piperazin-1-yl)pyridine-3-carbonitrile] had an IC50 of under 100 nM.
As for `C[C@@H](COCCC(=O)N1CCN(c2ncc(Cl)cn2)CC1)Nc1cn[nH]c(=O)c1Cl` [Example 598, 4-Chloro-5-[[(2S)-1-[3-[4-(5-chloropyrimidin-2-yl)piperazin-1-yl]-3-oxopropoxy]propan-2-yl]amino]-2,3-dihydropyridazin-3-one], the IC50 is under 100 nM.
Molecule `C[C@@H](COCCC(=O)N1CCN(c2ncc(C(F)(F)F)cn2)CC1)Nc1cn[nH]c(=O)c1Cl` [Example 599, (S)-4-Chloro-5-(1-(3-oxo-3-(4-(5-(trifluoromethyl)pyrimidin-2-yl)piperazin-1-yl)propoxy)propan-2-ylamino)pyridazin-3(2H)-one] came in with an IC50 of under 100 nM.
As for `C[C@@H](COCCC(=O)N1CCN(c2ccc(C#N)cn2)CC1)Nc1cn[nH]c(=O)c1Br` [Example 600, 6-(4-[3-[(2S)-2-[(5-bromo-6-oxo-1,6-dihydropyridazin-4-yl)amino]propoxy]propanoyl]piperazin-1-yl)pyridine-3-carbonitrile], the IC50 is under 100 nM.
Then `C[C@@H](COCCC(=O)N1CCN(c2ncc(C(F)(F)F)cn2)CC1)Nc1cn[nH]c(=O)c1Br` [Example 601, 4-Bromo-5-[[(2S)-1-(3-oxo-3-[4-[5-(trifluoromethyl)pyrimidin-2-yl]piperazin-1-yl]propoxy)propan-2-yl]amino]-2,3-dihydropyridazin-3-one], with under 100 nM; and `C[C@@H](COCCC(=O)N1CCN(c2ncc(Cl)cn2)CC1)Nc1cn[nH]c(=O)c1Br` [Example 602], with under 100 nM; and `O=C(CCOC[C@H](CO)Nc1cn[nH]c(=O)c1C(F)(F)F)N1CCN(c2ncc(C(F)(F)F)cn2)CC1` [Example 603, 5-[[(2S)-1-Hydroxy-3-(3-oxo-3-[4-[5-(trifluoromethyl)pyrimidin-2-yl]piperazin-1-yl]propoxy)propan-2-yl]amino]-4-(trifluoromethyl)-2,3-dihydropyridazin-3-one], with under 100 nM.
Molecule `O=C(CCOC[C@H](CO)Nc1cn[nH]c(=O)c1C(F)(F)F)N1CCN(c2ccc(C(F)(F)F)cn2)CC1` [Example 604, 5-[[(2S)-1-Hydroxy-3-(3-oxo-3-[4-[5-(trifluoromethyl)pyridin-2-yl]piperazin-1-yl]propoxy)propan-2-yl]amino]-4-(trifluoromethyl)-2,3-dihydropyridazin-3-one] yielded an IC50 of under 100 nM.
In the case of `N#Cc1ccc(N2CCN(C(=O)CCOC[C@@H](Nc3cn[nH]c(=O)c3C(F)(F)F)C3CC3)CC2)nc1` [Example 605, (S)-6-[4-[3-[2-Cyclopropyl-2-[[6-oxo-5-(trifluoromethyl)-1,6-dihydropyridazin-4-yl]amino]ethoxy]propanoyl]piperazin-1-yl]nicotinonitrile], the IC50 is under 100 nM.
The molecule `O=C(CCOC[C@@H](Nc1cn[nH]c(=O)c1C(F)(F)F)C1CC1)N1CCN(c2ncc(C(F)(F)F)cn2)CC1` [Example 606, (S)-5-[(1-Cyclopropyl-2-[3-oxo-3-[4-[5-(trifluoromethyl)pyrimidin-2-yl)piperazin-1-yl]propoxy]-ethyl]amino]-4-(trifluoromethyl)pyridazin-3(2H)-one] yielded an IC50 of under 100 nM.
